Assay results as given in patent US11632953B2, “Method for controlling hematophagous or sap-feeding arthropods” (Board of Supervisors of Louisiana State University and …, priority 2016, dated 2023).

What was measured:
[1] = tested on: honey bees (Apis mellifera); assay: acute topical toxicity in adult honey bees; format: in vivo; conditions: 48 h, VU041 1 mg/bee (~10 μg/mg), bifenthrin 0.1 μg/bee
Procedure: Frames of late-stage honeybee (A. mellifera) pupae were taken from four colonies at The Ohio State University Honey Bee Lab in Wooster, Ohio, and maintained in a dark humid incubator at 34° C. (Darwin Chambers Co., St. Louis, Mo., model H024) until adult bees emerged. New adults were brushed from frames daily, placed in wooden screen cages (21×14×12 cm), and provided with 1:1 (w/w) sucrose in water.
Acute toxicity experiments in adult bees were performed as follows: Twenty-four hours after emergence, adult honey bees in cages were anaesthetized with carbon dioxide, divided into groups of approximately 20 bees each, and placed in plastic-coated paper cups (177 cm^3; UNIQ Paper Yogurt Cup, Frozen Dessert Supplies, Gilbert, Ariz.) covered with cotton cheesecloth. […] As a positive control, some bees were treated with 3 μl of bifenthrin (0.1 μg/μl). Negative control bees were treated with 3 μl of solvent. Applications were made using a 20 μl micropipette (Fisherbrand Finnpipette F2, Fisher Scientific, Pittsburgh, Pa.) with a disposable plastic tip. […] Toxicity to honey bees was recorded at 48 h, rather than the 24 h used for mosquitoes, to allow for the possibility of delayed toxicity due to the larger body size of the bee. Bees showing no movement 48 h after treatment were scored as dead.

AnKir1 [2] = target: T1, AnKir1 (Anopheles gambiae, UniProt A0A075M2J8); assay: thallium (Tl+) flux assay; format: cell-based; conditions: SAR libraries; read-out: AnKir1 IC50
Procedure: The thallium flux assay is an in vitro method of measuring conductance through a potassium ion channel. Potassium channels are also permeable to thallium ions. The modulation of a K^+ channel will thus increase or decrease thallium ion flow through the channel and thus, alter the observed fluorescence of a thallium-specific indicator dye.
After 1 hr incubation at room temperature, the dye-loading solution was washed from the plates and replaced with 20 μL/well of assay buffer. The plates were transferred to a Hamamatsu Functional Drug Screening System 6000 (FDSS6000; Hamamatsu, Tokyo, Japan), where 20 μL/well of each of the test compounds in assay buffer was added and allowed to incubate with the cells for 20 min. After incubation, a baseline recording was collected at 1 Hz for 10 s (excitation 470±20 nm, emission 540±30 nm); a thallium stimulus buffer was then added (10 μL/well), and data were then collected for an additional 4 min. […] To ensure the small-molecule vehicle DMSO had no direct effect on AnKir1-dependent Tl^+ flux, the assay's tolerance to different doses of DMSO was evaluated. The robustness and reproducibility of the assay was determined by comparing Tl^+ flux through tetracycline-induced and tetracycline-free cells. The Z′ value was calculated as:
Z′=1−(3SDp+3SDn)/|meanp+meann| where SD is standard deviation, and p and n are control and uninduced flux values, respectively. To compare the effect of DMSO on AnKir1-mediated Tl^+ flux, a one-way ANOVA was performed with a Tukey's multiple comparison test. Prism software (GraphPad Software) was used to generate CRC from Tl^+ flux. Half-inhibition concentration (IC50) values were calculated from fits using a four parameter logistic equation.
Test compounds were transferred to daughter, 384-well polypropylene plates (Greiner Bio-One, Monroe, N.C.) with an Echo555 liquid handler (Labcyte, Sunnyvale, Calif.), and then diluted into assay buffer to generate a 2× stock in 0.6% DMSO (0.3% final). […] Concentration-response curves (CRCs) were generated by screening compounds at 3-fold dilution series (1 nM-30 μM).
Tl^+ flux data were analyzed using Excel (Microsoft Corp, Redmond, Wash.) with XLfit add-in (IDBS, Guildford, Surrey, UK), OriginPro (Origin Lab, Northampton, Mass.), and GraphPad Prism (GraphPad Software, San Diego, Calif., USA) software. Raw data were opened in Excel and each data point in a given trace was divided by the first data point from that trace (static ratio) followed by subtraction of data points from control traces generated with vehicle controls. The slope of the fluorescence increase beginning 5 s after Tl^+ addition and ending 15 s after Tl^+ addition was calculated.
To perform Tl+ flux assays, stably transfected T-Rex-HEK-293 cells expressing AnKir1 channels were cultured overnight in 384-well plates (20,000 cells/20 μL/well), black-walled, clear-bottomed BD Pure Coat amine-coated plates (BD, Bedford, Mass.) with a plating media containing DMEM, 10% dialyzed FBS and 1 μg/mL tetracycline. […] Following 1 hr incubation at room temperature, the dye-loading solution was washed from the plates and replaced with 20 μL/well of assay buffer.

hKir2.1 = hKir2.1 (Homo sapiens (Human), UniProt P63252); assay: thallium (Tl+) flux assay; format: cell-based; conditions: SAR libraries; read-out: hKir2.1 IC50
[3] = tested on: isolated tick salivary gland; assay: fluid secretion (salivation) in the isolated tick salivary gland, modified Ramsay assay; design: species or system Amblyomma americanum; conditions: for Effect on Salivation at 10 minutes (reduction) / reduction of salivary output / saliva secretion compared to control: isolated tick salivary gland
Drosophila melanogaster = assay: whole plant or invertebrate; conditions: 100 μM
Procedure: A capillary feeding assay (CAFE) was used to quantify the volume of sucrose solution consumed over a period of time; it was performed essentially as described in W. W. Ja, G. B. Carvalho, E. M. Mak, N. N. de la Rosa, A. Y. Fang, J. C. Liong, T. Brummel, S. Benzer, Prandiology of Drosophila and the CAFE assay. Proceedings of the National Academy of Sciences of the United States of America 104, 8253-8256 (2007); published online EpubMay 15 (10.1073/pnas.0702726104). […] One adult fly was placed into a 2 mL glass vial with a screw lid that was pierced with a glass microcapillary tube having a truncated 200-0 pipette tip. The microcapillary tubes contained 5% (wt/vol) sucrose solution with a 5 μl mineral oil overlay to minimize evaporation. […] Concentrations of 100 μM dopamine and 100 μM fluphenazine were used to determine the influence of those agents on fly feeding. […] All dead flies were excluded from all time points of the study regardless of the time of death. Mean (n>25) values are shown in all figure panels, depicting total consumption.
Times spent feeding in Kir1 and GFP genetic knockdown studies were compared to control values for each day using one-way ANOVA with a Dunns multiple comparisons post-test. Statistical significance for all studies was P<0.05.

An. gambiae [4] = conditions: cited from earlier work; for Resistance Ratio (Akron compared to G3 strain): ED50 Akron/ED50 G3
An. gambiae [5] = assay: topical toxicity bioassay in adult female An. gambiae; format: in vivo, Anopheles gambiae; conditions: 24 h
Procedure: Topical toxicity bioassays were performed on non-blood-fed adult female mosquitoes. The mosquitoes were chilled on ice for 1-3 minutes, during which 200 nL of compound (dissolved in 95% ethanol) was applied onto the abdomen of each insect with a handheld Hamilton® micro-applicator. […] […] The three resulting ED50 values were averaged. An ethanol-only treatment was included in each experiment as a negative control. Treated mosquitoes were transferred to small cages with access to 10% sucrose and held under rearing conditions for 24 h. Mortality was recorded at 24 h.

AnKir1 [6] = target: T1, AnKir1; assay: whole-cell patch clamp electrophysiology; format: cell-based; conditions: whole-cell patch clamp, HEK-293T cells
Procedure: Patch electrodes were pulled from silanized 1.5 mm outer diameter borosilicate microhematocrit tubes using a P-1000 Flaming/Brown micropipette puller (Sutter Instrument, Novato Calif., USA). Electrode resistance ranged from 2-4 MΩ. Whole-cell currents were recorded under voltage-clamp conditions using an Axopatch 200B amplifier (Molecular Devices, Sunnyvale, Calif.). Electrical connections to the amplifier used Ag/AgCl wires and 3 M KCl/agar bridges. Electrophysiological data were collected at 5 kHz and filtered at 1 kHz. Data acquisition and analysis were performed using pClamp 9.2 software (Axon Instruments).
Transiently transfected HEK-293T cells expressing AnKir1 were voltage-clamped in the whole-cell configuration of the patch clamp technique. The extracellular bath solution contained (in mM): 135 NaCl, 5 KCl, 2 CaCl2), 1 MgCl2, 5 glucose, 10 HEPES free acid, pH 7.4, 290 mOsm/kg H2O. The pipette solution contained (in mM): 135 KCl, 2 MgCl2, 1 EGTA, 10 HEPES free acid, 2 Na2ATP (Roche, Indianapolis, Ind.), pH 7.3, 275 mOsm. Cells were voltage clamped at −75 mV, stepped to −120 mV for 200 msec, and then ramped to 120 mV at a rate of 2.4 mV/msec. Concentration-response curves (CRCs) were constructed by measuring the effects of increasing doses of inhibitors on AnKir1 currents at −120 mV. All recordings were made at room temperature (20-23° C.).

Aphis gossypii = assay: aphid feeding on treated cotton leaves, electrophenegraph technique; format: in vivo; conditions: barium chloride at 300 micromolar
Procedure: FIGS. 14(A) and (B) depict measurements of aphid (Aphis gossypi) feeding on cotton leaves, as measured through the electrophenegraph technique; on control leaves and on leaves treated with the Kir inhibitor barium, respectively.
In aphids, a specific Kir channel blocker (barium chloride at 300 micromolar) was coated onto leaf tissue, and the feeding behavior of the adult aphid was analyzed through the classical electrophenegraph technique.

[7] = tested on: isolated tick salivary gland; assay: ion secretion in saliva of the isolated tick salivary gland; design: species or system Amblyomma americanum
Aedes aegypti mosquitoes = assay: mosquito blood feeding with compound exposure; format: in vivo; conditions: compound added to blood
From the text: Tolbutamide and glybenclamide are inhibitors of ATP-gated Kir channels.

hKir2.1, sequence (P63252 whole entry): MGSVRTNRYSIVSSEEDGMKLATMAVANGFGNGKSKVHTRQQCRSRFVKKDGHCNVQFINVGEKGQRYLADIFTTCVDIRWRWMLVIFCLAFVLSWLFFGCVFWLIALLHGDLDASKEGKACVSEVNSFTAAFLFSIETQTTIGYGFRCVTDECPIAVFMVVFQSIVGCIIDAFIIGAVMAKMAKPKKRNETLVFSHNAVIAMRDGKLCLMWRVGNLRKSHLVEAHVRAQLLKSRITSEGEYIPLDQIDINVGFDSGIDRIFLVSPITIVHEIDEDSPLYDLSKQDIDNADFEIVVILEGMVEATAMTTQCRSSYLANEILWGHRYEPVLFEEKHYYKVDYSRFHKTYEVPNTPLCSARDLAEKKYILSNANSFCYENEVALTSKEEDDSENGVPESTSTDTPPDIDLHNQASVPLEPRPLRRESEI
T1 sequence (A0A075M2J8 1-555): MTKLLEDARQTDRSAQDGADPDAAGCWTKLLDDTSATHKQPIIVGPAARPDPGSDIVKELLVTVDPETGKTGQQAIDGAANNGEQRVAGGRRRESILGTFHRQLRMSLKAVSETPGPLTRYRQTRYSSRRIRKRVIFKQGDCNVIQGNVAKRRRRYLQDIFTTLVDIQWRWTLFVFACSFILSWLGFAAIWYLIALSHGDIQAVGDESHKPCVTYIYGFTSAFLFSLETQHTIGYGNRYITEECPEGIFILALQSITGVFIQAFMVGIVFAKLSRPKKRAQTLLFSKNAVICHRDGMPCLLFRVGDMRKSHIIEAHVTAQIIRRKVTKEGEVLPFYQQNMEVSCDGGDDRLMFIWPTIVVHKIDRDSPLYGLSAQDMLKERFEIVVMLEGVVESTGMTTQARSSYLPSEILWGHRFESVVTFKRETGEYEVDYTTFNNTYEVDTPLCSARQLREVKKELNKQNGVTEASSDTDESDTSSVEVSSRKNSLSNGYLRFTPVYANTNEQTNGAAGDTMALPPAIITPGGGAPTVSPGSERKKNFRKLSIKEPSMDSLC

In the case of `Cc1c(COC(=O)[C@@H]2[C@H](/C=C(\Cl)C(F)(F)F)C2(C)C)cccc1-c1ccccc1` (racemic) [bifenthrin, reference compound], the “mortality of adult honey bees” value [1] is reported as 100%.

In the case of `O=C1CCCc2c1ccn2CC(=O)N1CCCc2ccccc21` [Compound 4], the IC50 (AnKir1 [2]) is reported as 12.1 µM and the IC50 (hKir2.1) is reported as > 30 µM.

In the case of `O=C(CN1CCCc2ccccc21)N1CCCc2ccccc21` [Compound 6], the IC50 (AnKir1 [2]) is reported as 8 µM.

For `O=C(Cn1nc(C(F)(F)F)c2c1CCCC2)N1CCCC2CCCCC21` (stereo not shown) [Compound 9], the IC50 (AnKir1 [2]) was 6.7 µM and the IC50 (hKir2.1) was > 30 µM.

For `O=C(Cn1nc(C(F)(F)F)c2c1CCCC2)N1CCCC(c2ccccc2)C1` (stereo not shown) [Compound 12], the IC50 (AnKir1 [2]) was 5.6 µM and the IC50 (hKir2.1) was > 30 µM.

For `CC1CC(C)CN(C(=O)Cn2nc(C(F)(F)F)c3c2CCCC3)C1` (stereo not shown) [Compound 13], the IC50 (AnKir1 [2]) was 4.5 µM and the IC50 (hKir2.1) was > 30 µM.

In the case of `O=C(Cn1nc(C(F)(F)F)c2c1CCCC2)N1CCOc2ccccc21` [Compound 14], the IC50 (AnKir1 [2]) is reported as 4.6 µM.

In the case of `CC(NC(=S)Nc1ccncc1)C(C)(C)C` (stereo not shown) [DRS-1], the “Effect on Salivation at 10 minutes (reduction)” value (“Effect … (reduction)” for short) [3] is reported as “Reduced ~80%”.

In the case of `CC(NC(=NC#N)Nc1cccnc1)C(C)(C)C` (stereo not shown) [DRS-3], the “Effect … (reduction)” value [3] is reported as “Reduced ~100%”.

With `CC(C)(C)CNC(=C[N+](=O)[O-])Nc1ccncc1` [DRS-4] the “Effect … (reduction)” value [3] was “Reduced ~83%”.

In the case of `NCCc1ccc(O)c(O)c1` [Dopamine, reference compound], the “increase in sucrose consumption vs control” value (“increase” for short) (Drosophila melanogaster; 1 day PE) is reported as 1.7 fold, the “increase” value (Drosophila melanogaster; 2 days PE) is reported as 1.3 fold and the “increase” value (Drosophila melanogaster; 3 days PE) is reported as 1.2 fold. The “increase” value (Drosophila melanogaster; 4 days PE) was 1.4 fold.

For `CC1(C)C(C=C(Cl)Cl)C1C(=O)OCc1cccc(Oc2ccccc2)c1` (stereo not shown) [Permethrin], the “Resistance Ratio (Akron compared to G3 strain)” value (An. gambiae [4]) is given as 33 fold, the “ED50, Akron Strain” value (An. gambiae [4]; topical, Akron strain, from reference 21) is given as 0.001 µg/mg and the “ED50, G3 Strain” value (An. gambiae [4]; topical, G3 strain, from reference 21) is given as 3e-07 µg/mg.

In the case of `O=C(Cn1ncc2c1CCOC2)N1CCCc2ccccc21` [VU730], the IC50 (AnKir1 [2]) is reported as 2.4 µM, the topical toxicity (An. gambiae [5]; adult females) is reported as “ED50 similar to that for VU041” and the “ED50 (95% confidence limits), G3 Strain” value (An. gambiae [5]; topical, G3 strain, synergists 500 ng/insect four hours prior) is reported as 2.4 (2.1-2.9) A μg/mg. For the same compound, the IC50 (hKir2.1) was > 30 µM and the IC50 (AnKir1 [6]) was 0.717 µM.

For `[Ba+2].[Cl-].[Cl-]` [barium chloride], the “feeding phases (egestion, salivation, ingestion)” value (Aphis gossypii) was “inability of treated aphids to salivate”, the “K+ and Na+ ion secretion rates in salivary droplets” value [7] was “significantly reduced” and the transepithelial fluid secretion ([3]; control 270 nl/5 min, preliminary) was 141 nl/5 min. For the same compound, the “reduction of salivary output / saliva secretion compared to control” value [3] was “approximately 60%”.

For `CNCCC(Oc1ccc(C(F)(F)F)cc1)c1ccccc1` (stereo not shown) [fluoxetine], the “reduction of salivary output / saliva secretion compared to control” value [3] was 98%.

With `O=C(NCCO[N+](=O)[O-])c1cccnc1` [nicorandil] the “cations (K+ and Na+) concentrations excreted from the salivary glands” value [7] was “significant reduction”.

In the case of `CNC(=O)Oc1ccccc1OC(C)C` [propoxur], the “Resistance Ratio (Akron compared to G3 strain)” value (An. gambiae [4]) is listed as 101 fold.

In the case of `CCCCNC(=O)NS(=O)(=O)c1ccc(C)cc1` [tolbutamide], the “reduction of total volume of blood consumed” value (Aedes aegypti mosquitoes) is reported as 99%.
